Source: patent publication US20170008928A1, “NOVEL PEPTIDES AND PEPTIDE DERIVATIVES AND USES THEREOF” (Novo Nordisk A/S, priority 2015, published 2017)
pEC50, pIC50: −log10 of the molar value. Like-named read-outs stand apart in the source and are kept apart here. Starred links: 1 amine or outer side, 2 acyl side, 3 side chain; linkers in the order of their positions; H or OH if unused. Non-standard residues stand in square brackets, D forms with d. Residues, ends and D or L forms follow the SMILES beside them. *: point of attachment. Phe(4-CH2SO3H) = N[C@@H](Cc1ccc(CS(=O)(=O)O)cc1)C(=O)O; sY = N[C@@H](Cc1ccc(OS(=O)(=O)O)cc1)C(=O)O; C18 diacid = O=C(O)CCCCCCCCCCCCCCCCC(=O)*; γGlu = O=C(O)[C@H](CCC(=O)[*:2])N[*:1]; Met(O2) = CS(=O)(=O)CC[C@H](N)C(=O)O; NMeF = CN[C@@H](Cc1ccccc1)C(=O)O; dNMeD = CN[C@H](CC(=O)O)C(=O)O; Nle = CCCC[C@H](N)C(=O)O; AEEA = NCCOCCOCC(=O)O

Tests used:
[1] = molecular target: T1, human cholecystokinin-1 receptor (CCK-1R) (Homo sapiens, UniProt P32238); test: In vitro potency on CCK-1R, whole cell functional assay (IP1 accumulation, IP-One HTRF); format: cell-based
T1 construct: host or cells: 1321-N1 cells
T1 sequence (P32238 1-428): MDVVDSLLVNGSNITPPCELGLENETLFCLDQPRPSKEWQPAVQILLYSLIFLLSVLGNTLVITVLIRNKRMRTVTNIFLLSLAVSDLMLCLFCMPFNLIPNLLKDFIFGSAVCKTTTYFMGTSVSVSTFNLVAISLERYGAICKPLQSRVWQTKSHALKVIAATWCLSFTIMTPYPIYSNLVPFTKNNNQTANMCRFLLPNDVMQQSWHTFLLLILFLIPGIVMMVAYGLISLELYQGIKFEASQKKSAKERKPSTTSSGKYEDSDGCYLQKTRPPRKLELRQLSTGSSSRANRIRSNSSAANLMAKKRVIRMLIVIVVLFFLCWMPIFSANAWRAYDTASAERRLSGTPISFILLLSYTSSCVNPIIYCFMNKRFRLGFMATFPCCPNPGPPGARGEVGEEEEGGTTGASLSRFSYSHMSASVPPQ

[2] = molecular target: T1, human cholecystokinin-1 receptor (CCK-1R); test: In vitro receptor binding to CCK-1R, SPA displacement of [125I]-CCK-8s from plasma membranes; details: ratio of binding IC50 values; >1 = preference for CCK-1R
Protocol: The in vitro binding affinity is a measure of the strength of attraction between a receptor and its ligand.
Displacement of radio ligand was measured as reduction in light emission from SPA beads.
The cells used in these assays were 1321-N1 cells stably expressing the CCK-1R or the CCK-2R (Perkin Elmer product numbers ES-530-A and ES-531-A, respectively see www.perkinelmer.com/Catalog/Product/ID/ES-530-A or -ES-531-A, respectively).
The cells were cultured in an incubator (95% RH (relative humidity), 5% (of standard atmospheric pressure) CO2, 37° C.) in cell culture medium (DMEM (Lonza catalogue BE-12-604F/U1), with 10% (v/v) Foetal Calf Serum (FCS, Gibco catalogue 16140-071), 1% (w/w) Sodium pyruvate (Gibco catalogue 11360-039), 500 μg/ml Geneticin® (G418) (Gibco catalogue 10131-027), 25 μg/ml Zeocin™ (Invitrogen catalogue R250-05), 1% (w/w) Pen/Strep (Gibco catalogue 15140-122)).
Plasma membranes were prepared by Evotec AG Hamburg by use of the ParrBomb (#4635, Parr Instrument Company). Cells were lysed with a lysis buffer (50 mM Tris, 2.5 mM EDTA, pH7) with added protease inhibitors (Complete Proteaseinhibitors EDTA-free (#05056489001, Roche), 1 tablet per 50 mL lysis buffer). The membrane fraction was separated by centrifugation. First, the cell lysate was centrifuged at 1000×g for 10 minutes at 4° C. The pellet was discarded and the supernatant was then centrifuged at 100.000×g for 30 minutes at 4° C. The supernatant was discarded and the pellet was re-suspended in 1 ml/5×10^8 cells ice cold membrane buffer (50 mM Tris, 320 mM Sucrose and Complete Proteaseinhibitors EDTA-free (#05056489001, Roche); pH7.4) and homogenised with dounce homogeniser. The protein concentration was determined using the Pierce™ BCA Protein Assay Kit according to kit manual, and the membrane preparation was adjust to the desired protein concentration with membrane buffer and aliquoted into pre-cooled tubes, snap-frozen in liquid nitrogen, and stored at −80° C.
CCK receptor binding assays were performed in 96-well Optiplates (Cat #6005290, PerkinElmer, Waltham, Mass., USA) in a total volume of 200 μl per well. CCK derivatives in 80% DMSO stock solutions of 800 μM were serially diluted […] in assay buffer (50 mM Tris/HCl, 4.5 mM MgCl2, […], 0.02% Tween 20, 0.25% ovalbumin, 0.1% pluronic F-68, pH 7.4) to final assay concentrations ranging from 10^−5 M (ten μM) to 10^−12 M (one pM).
Fifty μl of reference or test compounds were added to the Optiplates (using technical duplicates, i.e. two wells of each sample, one data point being the average of two wells), followed by addition of 150 μl of the mixture of SPA bead, radio ligand, and plasma membrane. The plates were sealed and incubated in the dark at +22° C. for 2 hours on a IKA MTS plate shaker (IKA-Werke D-79219 Staufen) set at 300 rpm and thereafter centrifuged at 1500 rpm for 10 minutes in a Heraeus Multifuge 3s centrifuge. SPA bead light emission was measured in a TopCount NXT (PerkinElmer) for 2 min/well after a delay of 60 min.
As a measure of compound affinity, calculations were performed in order to determine the half maximal inhibitory concentration (the IC50 value).
The data from the TopCounter were given as counts per minute (CPM). The CPM was plotted as a function of the concentration of compound. Dose-response curves were obtained, and IC50 values were calculated, by a nonlinear three-parameter logistic equation (log(agonist) vs response) with hillslope=−1, and shared top and bottom using the software programme GraphPad Prism v 6.0 (Graph Pad software, La Jolla, Calif., USA). The highest dose tested was 10^−5 M (1×10^7 pM).
The preference of a specific compound for the CCK-1 receptor, or the CCK-1R selectivity, may be defined as IC50 (CCK-2R)/IC50 (CCK-1R).
A minimum of three biological replicates was measured for each test compound on separate assay plates.

[3] = molecular target: T2, human cholecystokinin-2 receptor (CCK-2R) (Homo sapiens, UniProt P32239); test: In vitro potency on CCK-2R, whole cell functional assay (IP1 accumulation, IP-One HTRF); format: cell-based
T2 construct: host or cells: 1321-N1 cells (plasma membranes prepared by Evotec AG Hamburg)
T2 sequence (P32239 1-447): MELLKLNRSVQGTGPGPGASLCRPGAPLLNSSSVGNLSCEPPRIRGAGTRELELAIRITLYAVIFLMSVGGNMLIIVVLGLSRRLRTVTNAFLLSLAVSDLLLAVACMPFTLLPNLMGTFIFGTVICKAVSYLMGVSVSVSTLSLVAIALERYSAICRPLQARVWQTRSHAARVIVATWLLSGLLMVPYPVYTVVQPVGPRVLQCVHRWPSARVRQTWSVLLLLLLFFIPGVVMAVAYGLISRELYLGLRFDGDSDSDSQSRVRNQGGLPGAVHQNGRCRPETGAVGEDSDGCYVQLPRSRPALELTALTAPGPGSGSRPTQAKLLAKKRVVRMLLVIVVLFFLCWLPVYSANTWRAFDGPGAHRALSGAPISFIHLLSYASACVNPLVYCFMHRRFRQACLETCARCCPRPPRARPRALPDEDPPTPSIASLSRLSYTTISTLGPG

[4] = molecular target: T2, human cholecystokinin-2 receptor (CCK-2R); test: In vitro receptor binding to CCK-2R, SPA displacement of [125I]-CCK-8s from plasma membranes
[5] = 1321-N1 cells stably expressing CCK-1R, IP1 accumulation, average of min. three replicates, read-out: EC50 (CCK-1R)
[6] = 1321-N1 cells stably expressing CCK-2R, IP1 accumulation, highest dose tested 1×10^6 pM, read-out: EC50 (CCK-2R)
[7] = displacement of [125I]-CCK-8s, plasma membranes of 1321-N1 cells expressing CCK-2R, highest dose tested 1×10^7 pM, read-out: IC50 (CCK-2R)

Row | SMILES | CCK-1R selectivity (EC50 (CCK-2R)/EC50 (CCK-1R)) ([1]; ratio of functional EC50 values, >1 = preference for CCK-1R) | CCK-1R binding selectivity (IC50 (CCK-2R)/IC50 (CCK-1R)) [2] | pEC50 [1, 5] | pEC50 [3, 6] | pIC50 [4] | pIC50 [4, 7] | pEC50 [1] | pEC50 [3]
1 | CCCC[C@H](NC(=O)[C@H](Cc1c[nH]c2ccccc12)NC(=O)CNC(=O)[C@H](Cc1ccccc1)NC(=O)[C@H](Cc1ccc(OS(=O)(=O)O)cc1)NC(=O)[C@H](CC(=O)O)NC(=O)COCCOCCNC(=O)COCCOCCNC(=O)CC[C@H](NC(=O)CCCCCCCCCCCCCCCCC(=O)O)C(=O)O)C(=O)N(C)[C@H](CC(=O)O)C(=O)N(C)[C@@H](Cc1ccccc1)C(N)=O [Example 44, 2-[2-[2-[[2-[2-[2-[[(4S)-4-Carboxy-4-(17-carboxyheptadecanoylamino)butanoyl]amino]ethoxy]ethoxy]acetyl]amino]ethoxy]ethoxy]acetyl-Asp-sTyr-Phe-Gly-Trp-Nle-DMeAsp-MePhe-amide] ({C18 diacid-γGlu-AEEA-AEEA}-D[sY]FGW[Nle][dNMeD][NMeF]-NH2) | 960 | 87000 | – | – | – | – | – | –
2 | CC(C)C[C@H](NC(=O)[C@H](Cc1ccc(OS(=O)(=O)O)cc1)NC(=O)[C@H](CC(=O)O)NC(=O)COCCOCCNC(=O)COCCOCCNC(=O)CC[C@H](NC(=O)CCCCCCCCCCCCCCCCC(=O)O)C(=O)O)C(=O)NCC(=O)N[C@@H](Cc1c[nH]c2ccccc12)C(=O)N[C@@H](CCS(C)(=O)=O)C(=O)N(C)[C@H](CC(=O)O)C(=O)N(C)[C@@H](Cc1ccccc1)C(N)=O [Example 12, 2-[2-[2-[[2-[2-[2-[[(4S)-4-Carboxy-4-(17-carboxyheptadecanoylamino)butanoyl]amino]ethoxy]ethoxy]acetyl]amino]ethoxy]ethoxy]acetyl-Asp-sTyr-Leu-Gly-Trp-Met(O2)-DMeAsp-MePhe-amide] ({C18 diacid-γGlu-AEEA-AEEA}-D[sY]LGW[Met(O2)][dNMeD][NMeF]-NH2) | – | – | 9.85 | < 6.00 | < 5.00 | – | – | –
3 | CCCC[C@H](NC(=O)[C@H](Cc1c[nH]c2ccccc12)NC(=O)CNC(=O)[C@H](CCCNC(=N)N)NC(=O)[C@H](Cc1ccc(OS(=O)(=O)O)cc1)NC(=O)[C@H](CC(=O)O)NC(=O)COCCOCCNC(=O)COCCOCCNC(=O)CC[C@H](NC(=O)CCCCCCCCCCCCCCCCC(=O)O)C(=O)O)C(=O)N(C)[C@H](CC(=O)O)C(=O)N(C)[C@@H](Cc1ccccc1)C(N)=O [Example 17, 2-[2-[2-[[2-[2-[2-[[(4S)-4-Carboxy-4-(17-carboxyheptadecanoylamino)butanoyl]amino]ethoxy]ethoxy]acetyl]amino]ethoxy]ethoxy]acetyl-Asp-sTyr-Arg-Gly-Trp-Nle-DMeAsp-MePhe-amide] ({C18 diacid-γGlu-AEEA-AEEA}-D[sY]RGW[Nle][dNMeD][NMeF]-NH2) | – | – | 9.68 | 6.57 | – | 6.06 | – | –
4 | CC(C)C[C@H](NC(=O)[C@H](Cc1ccc(OS(=O)(=O)O)cc1)NC(=O)[C@@H](N)CC(=O)O)C(=O)NCC(=O)N[C@@H](Cc1c[nH]c2ccccc12)C(=O)N[C@@H](CC(C)C)C(=O)N(C)[C@H](CC(=O)O)C(=O)N(C)[C@@H](Cc1ccccc1)C(N)=O [Example 64, Asp-sTyr-Leu-Gly-Trp-Leu-DMeAsp-MePhe-amide] | – | – | – | – | < 5.00 | – | 9.60 | < 6.00
5 | CCCC[C@H](NC(=O)[C@H](Cc1ccc(CS(=O)(=O)O)cc1)NC(=O)[C@@H](N)CC(=O)O)C(=O)NCC(=O)N[C@@H](Cc1c[nH]c2ccccc12)C(=O)N[C@@H](CCCC)C(=O)N(C)[C@H](CC(=O)O)C(=O)N(C)[C@@H](Cc1ccccc1)C(N)=O [Example 55, Asp-Phe(4-sulfomethyl)-Nle-Gly-Trp-Nle-DMeAsp-MePhe-amide] (H-D[Phe(4-CH2SO3H)][Nle]GW[Nle][dNMeD][NMeF]-NH2) | – | – | 9.60 | < 6.00 | – | < 5.00 | – | –
6 | CCCC[C@H](NC(=O)[C@H](Cc1c[nH]c2ccccc12)NC(=O)CNC(=O)[C@@H]1CCCN1C(=O)[C@H](Cc1ccc(OS(=O)(=O)O)cc1)NC(=O)[C@@H](N)CC(=O)O)C(=O)N(C)[C@H](CC(=O)O)C(=O)N(C)[C@@H](Cc1ccccc1)C(N)=O [Example 69, Asp-sTyr-Pro-Gly-Trp-Nle-DMeAsp-MePhe-amide] (H-D[sY]PGW[Nle][dNMeD][NMeF]-NH2) | – | – | 9.72 | < 6.00 | – | < 5.00 | – | –
7 | CCCC[C@H](NC(=O)[C@H](Cc1c[nH]c2ccccc12)NC(=O)CNC(=O)[C@H](C)NC(=O)[C@H](Cc1ccc(OS(=O)(=O)O)cc1)NC(=O)[C@@H](N)CC(=O)O)C(=O)N(C)[C@H](CC(=O)O)C(=O)N(C)[C@@H](Cc1ccccc1)C(N)=O [Example 80, Asp-sTyr-Ala-Gly-Trp-Nle-DMeAsp-MePhe-amide] (H-D[sY]AGW[Nle][dNMeD][NMeF]-NH2) | – | – | 9.80 | < 6.00 | – | < 5.00 | – | –
8 | CCCC[C@H](NC(=O)[C@H](Cc1c[nH]c2ccccc12)NC(=O)CNC(=O)[C@H](CC(C)C)NC(=O)[C@H](Cc1ccc(OS(=O)(=O)O)cc1)NC(=O)[C@@H](N)CCC(=O)O)C(=O)N(C)[C@H](CC(=O)O)C(=O)N(C)[C@@H](Cc1ccccc1)C(N)=O [Example 77, Glu-sTyr-Leu-Gly-Trp-Nle-DMeAsp-MePhe-amide] (H-E[sY]LGW[Nle][dNMeD][NMeF]-NH2) | – | – | 9.68 | 6.04 | – | < 5.00 | – | –
